Assay results: patent US20190375778A1, “ADENOSINE DERIVATIVES FOR USE IN THE TREATMENT OF CANCER” (NuCana plc, priority 2016, published 2019)

Legend:
RL = test: CellTiterGlo viability assay, RL; format: cell-based; details: Homo sapiens, RL, 72 h, read-out: IC50 RL
Protocol: (§1) In vitro viability assay were performed to assess the effects of compounds on cell viability in selected cell lines over ˜72 hrs using the CellTiterGlo (CTG, Promega-G7573) assay. The tests were performed in duplicates with treatment of compounds at 9 points, 3.16 folds titration in 96 well plates over ˜72 hrs. The compound starting concentrations were 198 μM. Cell viability assay using CellTiterGlo in 96-well plate were performed. Compound treatment 72 hrs, standard growth conditions, duplicates. Compounds were dissolved to 40 mM with thawed […]. Compounds were serially diluted at 3.16 fold in thawed DMSO, and warmed to 37° C. before being dissolved in media (2 μl+200 μl). After compounds were dissolved in media, media containing compounds were warmed to 37° C. in incubator and then compounds in media were added to cell plates (50 μl+50 μl) in duplicates. The compounds' final concentrations were from […] to 19.9 nM. All compound solubilities were checked and recorded again, then the plates were transferred to CO2 tissue culture incubator immediately and incubated for 3 days. DMSO final concentration is 0.5%.

[1] = tested on: human cervix carcinoma HeLa cells; test: Cell proliferation (Coulter count) assay, HeLa; format: cell-based; details: 120 h, cell count on day 5, read-out: absolute IC50, HeLa
From the text: (§2) Lovo: cell line derived from a metastatic site in a patient with colon cancer MCF7: human oestrogen sensitive mammary epithelial cell line PC3: human prostate cancer cell line A549: cancerous lung tissue derived cells L1210: lymphoblast cell line derived from a mouse with lymphocytic leukaemia FM3A: mammary carcinoma murine cells CEM: human T-lymphoblasts, derived from the blood of a patient with acute lymphoblastic leukaemia HeLa: epithelial cells from a patient with cervical adenocarcinoma
(§3) Murine leukemia L1210, human T-lymphocyte CEM, and human cervix carcinoma HeLa cells were obtained from the American Type Culture Collection (ATCC) (Rockville, Md.). All cells were maintained in Dulbecco's modified Eagle's medium (DMEM) (Invitrogen, Carlsbad, Calif.) with 10% fetal bovine serum (FBS) (Biochrom AG, Berlin, Germany), 10 mM Hepes, and 1 mM sodiumpyruvate (Invitrogen). Cells were grown at 37° C. in a humidified incubator with a gas phase of 5% CO2. Monolayer cells (HeLa and […]) were seeded in 96-well microtiter plates (Nunc, Roskilde, Denmark) at 10 000 cells/well. After 24 h, an equal volume of fresh medium containing the test compounds was added. On day 5, cells were trypsinized and counted in a Coulter counter (Analis, Suarlee, Belgium). Suspension cells (L1210, CEM) were seeded in 96-well microtiter plates (Nunc) at 60 000 cells/well in the presence of a given amount of the test compounds. The cells were allowed to proliferate for 48 h (L1210) or 72 h (CEM) and were then counted in a Coulter counter. The 50% inhibitory concentration (IC50) was defined as the compound concentration required to reduce cell proliferation by 50%. The cytostatic activity of the compounds was determined after 3 days, as outlined above.

KG-1 = test: CellTiterGlo viability assay, KG-1; format: cell-based; details: Homo sapiens, KG-1, 72 h, read-out: IC50 KG-1
Protocol: as §1

CCRFCEM = test: CellTiterGlo viability assay, CCRFCEM; format: cell-based; details: Homo sapiens, CCRF-CEM, 72 h, read-out: IC50 CCRFCEM
Protocol: as §1

MCF7 [2] = test: CellTiterGlo viability assay, MCF7; format: cell-based; details: Homo sapiens, MCF7, 72 h, read-out: IC50 MCF7
Protocol: as §1

MDAMB231 = test: CellTiterGlo viability assay, MDAMB231; format: cell-based, Human
Protocol: as §1

RPMI-8226 = test: CellTiterGlo viability assay, RPMI-8226; format: cell-based, Human; details: Homo sapiens, RPMI-8226, 72 h, read-out: IC50 RPMI-8226
Protocol: as §1

HL-60 = test: CellTiterGlo viability assay, HL-60; format: cell-based; details: Homo sapiens, HL-60, 72 h, read-out: IC50 HL-60
Protocol: as §1

Murine leukemia L1210 = test: Cell proliferation (Coulter count) assay, L1210; format: cell-based; details: Mus musculus, 48 h, read-out: absolute IC50, L1210
From the text: as §2, §3

NCI-H929 = test: CellTiterGlo viability assay, NCI-H929; format: cell-based; details: Homo sapiens, NCI-H929, 72 h, read-out: IC50 NCI-H929
Protocol: as §1

K562 = test: CellTiterGlo viability assay, K562; format: cell-based; details: Homo sapiens, K562, 72 h, read-out: IC50 K562
Protocol: as §1

MV4-11 = test: CellTiterGlo viability assay, MV4-11; format: cell-based; details: Homo sapiens, MV4-11, 72 h, read-out: IC50 MV4-11
Protocol: as §1

human T-lymphocyte CEM = test: Cell proliferation (Coulter count) assay, CEM; format: cell-based; details: 72 h, read-out: absolute IC50, CEM
From the text: as §2, §3

HEL92.1.7 = test: CellTiterGlo viability assay, HEL92.1.7; format: cell-based; details: Homo sapiens, HEL 92.1.7, 72 h, read-out: IC50 HEL92.1.7
Protocol: as §1

MCF7 [3] = test: MTT cytotoxicity assay, MCF7; format: cell-based; details: Homo sapiens, 96 h compound exposure, read-out: absolute IC50, MCF7
From the text: as §2
(§4) Anti-tumour evaluation in MCF7, LoVo, A549 and PC3 cell lines was performed by MTT assay. Compounds were prepared as 0.1-100 mM stock solutions dissolved in DMSO and stored at −20° C. Cells were seeded into 96-well microtitre plates at a density of 5×10^3 cells per well and allowed 24 hours to adhere. Decimal compound dilutions were prepared in medium immediately prior to each assay (final concentration 0.1-100 μM). Experimental medium was DMEM+10% FCS (PC3 and Lovo) or RPMI+10% heat inactivated FCS (A549 and MCF7). Following 96 h compound exposure at 37° C., 5% CO2, MTT reagent (Sigma Aldrich) was added to each well (final concentration 0.5 mg/ml). Incubation at 37° C. for 4 h allowed reduction of MTT by viable cells to an insoluble formazan product. MTT was removed and formazan solubilised by addition of 10% Triton X-100 in PBS. Absorbance was read on a Tecan Sunrise spectrophotometer at 540 nm as a measure of cell viability; thus inhibition relative to control was determined (IC50).

FM3A = test: Cytotoxicity, FM3A; format: cell-based, murine; details: Mus musculus, read-out: absolute IC50, FM3A
From the text: as §2

PC3 = test: MTT cytotoxicity assay, PC3; format: cell-based; details: Homo sapiens, PC-3, 96 h compound exposure, read-out: absolute IC50, PC3
From the text: as §2, §4

Lovo = test: MTT cytotoxicity assay, Lovo; format: cell-based; details: Homo sapiens, 96 h compound exposure, read-out: absolute IC50, Lovo
From the text: as §2, §4

A549 = test: MTT cytotoxicity assay, A549; format: cell-based; details: Homo sapiens, 96 h compound exposure, read-out: absolute IC50, A549
From the text: as §2, §4

| Structure (SMILES) | IC50 (RL) [µM] | IC50 [1] [µM] | IC50 (KG-1) [µM] | IC50 (CCRFCEM) [µM] | IC50 (MCF7 [2]) [µM] | MI% MDAMB231 (MDAMB231; CellTiterGlo, 72 hrs) [%] | IC50 (MDAMB231; Homo sapiens, MDA-MB-231, 72 h, read-out: IC50 MDAMB231) [µM] | IC50 (RPMI-8226) [µM] | IC50 (HL-60) [µM] | IC50 (Murine leukemia L1210) [µM] | IC50 (NCI-H929) [µM] | IC50 (K562) [µM] | IC50 (MV4-11) [µM] | IC50 (human T-lymphocyte CEM) [µM] | IC50 (HEL92.1.7) [µM] | IC50 (MCF7 [3]) [µM] | IC50 (FM3A) [µM] | IC50 (PC3) [µM] | IC50 (Lovo) [µM] | IC50 (A549) [µM] |
| --- | --- | --- | --- | --- | --- | --- | --- | --- | --- | --- | --- | --- | --- | --- | --- | --- | --- | --- | --- | --- |
| CC(C)C[C@H](NP(=O)(OC[C@H]1O[C@@H](n2c(Cl)nc3c(N)ncnc32)C(O)C1O)Oc1cccc2ccccc12)C(=O)OCc1ccccc1 (stereo partly drawn) [H, 5′-([(Benzyloxy-L-leucin-N-yl)-naphth-1-yl]-phosphatyl) 8-chloroadenosine] | 15 to 100 | 0.1 to 5 | 5 to 15 | 5 to 15 | 0.1 to 5 | 99 | 5 to 15 | 0.1 to 5 | 5 to 15 | 5 to 15 | 0.1 to 5 | 0.1 to 5 | 0.1 to 5 | 0.1 to 5 | 0.1 to 5 |  |  |  |  |  |
| CC(C)[C@H](NP(=O)(OC[C@H]1O[C@@H](n2c(Cl)nc3c(N)ncnc32)C(O)C1O)Oc1ccccc1)C(=O)OCc1ccccc1 (stereo partly drawn) [AA, 5′-([(Benzyloxy-L-valin-N-yl)-phenyl]-phosphatyl) 8-chloroadenosine] |  | 5 to 15 |  |  |  |  |  |  |  | 15 to 100 |  |  |  | 15 to 100 |  | 0.1 to 5 | 15 to 100 | 15 to 100 | 0.1 to 5 | 15 to 100 |
| C[C@@H](NP(=O)(OC[C@H]1O[C@@H](n2c(Cl)nc3c(N)ncnc32)C(O)C1O)Oc1ccccc1)C(=O)OCc1ccccc1 (stereo partly drawn) [T, 5′-([(Benzyloxy-D-alanin-N-yl)-phenyl]-phosphatyl) 8-chloroadenosine] |  | 5 to 15 |  |  |  |  |  |  |  | 15 to 100 |  |  |  | 15 to 100 |  | 15 to 100 | 15 to 100 | 0.1 to 5 | 0.1 to 5 | 15 to 100 |
| CC(C)(C)COC(=O)C(C)(C)NP(=O)(OC[C@H]1O[C@@H](n2c(Cl)nc3c(N)ncnc32)C(O)C1O)Oc1ccccc1 (stereo partly drawn) [Y, 5′-([(Neopentyloxy-2,2-dimethylglycin-N-yl)-phenyl]-phosphatyl) 8-chloroadenosine] |  | 15 to 100 |  |  |  |  |  |  |  | 15 to 100 |  |  |  | 15 to 100 |  | 15 to 100 | 15 to 100 | 0.1 to 5 | 0.1 to 5 | > 100 |
